Biological target: T1, Pol theta (1-899) (Homo sapiens, UniProt O75417)
T1 construct: Pol theta (1-899) (5 nM) in assay buffer
Test: Pol theta ATPase activity, NADH oxidation-coupled enzymatic assay (ATPase NADH coupling: Standard Screening: hPolQ)
Format: biochemical
Details: Pol theta (1-899) 5 nM, NADH oxidation-coupled ATPase assay; compounds of Table 3
Procedure, shortened: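 Rates of ATP hydrolysis taken from 60-min A340 traces of NADH oxidation via PK/LDH coupling, then fit four-parameter for IC50, Hill slope and max inhibition. Enzyme (5 nM, 1-899) and compounds preincubated 15 min before ATP 100 μM and 50-thymine ssDNA 300 nM (stock, equal volume added).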

T1 sequence (O75417 1-899): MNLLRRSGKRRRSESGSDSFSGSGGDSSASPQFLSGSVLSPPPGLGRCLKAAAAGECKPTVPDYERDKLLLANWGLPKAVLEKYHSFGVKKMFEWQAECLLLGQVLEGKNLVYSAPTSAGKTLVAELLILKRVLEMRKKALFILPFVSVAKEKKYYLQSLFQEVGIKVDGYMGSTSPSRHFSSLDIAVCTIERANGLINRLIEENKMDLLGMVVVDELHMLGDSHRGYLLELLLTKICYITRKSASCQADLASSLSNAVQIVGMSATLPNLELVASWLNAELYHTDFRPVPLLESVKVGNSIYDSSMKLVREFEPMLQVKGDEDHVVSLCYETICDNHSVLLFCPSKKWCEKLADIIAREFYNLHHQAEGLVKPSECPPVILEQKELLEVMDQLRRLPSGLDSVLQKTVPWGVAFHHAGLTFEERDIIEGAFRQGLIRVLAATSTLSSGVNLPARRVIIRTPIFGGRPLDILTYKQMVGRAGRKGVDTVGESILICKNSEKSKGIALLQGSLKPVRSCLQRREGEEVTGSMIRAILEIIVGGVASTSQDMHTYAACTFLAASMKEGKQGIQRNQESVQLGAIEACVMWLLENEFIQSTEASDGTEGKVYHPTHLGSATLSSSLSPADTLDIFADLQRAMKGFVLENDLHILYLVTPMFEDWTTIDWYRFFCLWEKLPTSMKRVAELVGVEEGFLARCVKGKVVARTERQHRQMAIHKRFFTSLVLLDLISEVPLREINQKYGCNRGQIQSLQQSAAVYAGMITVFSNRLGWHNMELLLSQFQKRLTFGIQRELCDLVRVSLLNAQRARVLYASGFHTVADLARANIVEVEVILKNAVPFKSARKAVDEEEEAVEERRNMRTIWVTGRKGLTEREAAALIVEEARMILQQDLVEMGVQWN

Structure (SMILES): COc1cnc(Cl)cc1-c1cc(C)ncc1C(=O)Nc1nnc(O[C@@H]2CCCN([C@@H]3CCOC3)C2)s1 [Example 264, 2′-chloro-5′-methoxy-6-methyl-N-(5-(((R)-1-((R)-tetrahydrofuran-3-yl)piperidin-3-yl)oxy)-1,3,4-thiadiazol-2-yl)-[4,4′-bipyridine]-3-carboxamide]
- IC50: ≤ 200 nM

Structure (SMILES): COc1nnc(NC(=O)c2cc(OC(F)F)ncc2-c2cc(Cl)ncc2OC)s1 [Example 265, 2′-chloro-6-(difluoromethoxy)-5′-methoxy-N-(5-methoxy-1,3,4-thiadiazol-2-yl)-[3,4′-bipyridine]-4-carboxamide]
- IC50: ≤ 200 nM

Structure (SMILES): COc1nnc(NC(=O)c2ccc(F)cc2-c2cc(Cl)ncc2OC)s1 [Example 266, 2-(2-chloro-5-methoxypyridin-4-yl)-4-fluoro-N-(5-methoxy-1,3,4-thiadiazol-2-yl)benzamide]
- IC50: ≤ 200 nM

Structure (SMILES): COc1cnc(Cl)cc1-c1cc(C)ncc1C(=O)Nc1nnc(O[C@@H]2C[C@H](F)CN(C)C2)s1 [Example 267, 2′-chloro-N-(5-(((3R,5S)-5-fluoro-1-methylpiperidin-3-yl)oxy)-1,3,4-thiadiazol-2-yl)-5′-methoxy-6-methyl-[4,4′-bipyridine]-3-carboxamide]
- IC50: ≤ 200 nM

Structure (SMILES): COc1cnc(Br)cc1-c1cc(C)ncc1C(=O)Nc1nnc(O[C@H]2CC[C@@H](CO)CC2)s1 [Example 268, 2′-bromo-N-(5-(((1s,4s)-4-(hydroxymethyl)cyclohexyl)oxy)-1,3,4-thiadiazol-2-yl)-5′-methoxy-6-methyl-[4,4′-bipyridine]-3-carboxamide]
- IC50: ≤ 200 nM

Structure (SMILES): CCc1cc(C(=O)Nc2nnc(OC)s2)c(-c2cc(Cl)ncc2OC)cn1 [Example 270, 2′-chloro-6-ethyl-5′-methoxy-N-(5-methoxy-1,3,4-thiadiazol-2-yl)-[3,4′-bipyridine]-4-carboxamide]
- IC50: 200 to 500 nM

Structure (SMILES): COc1cnc(Br)cc1-c1cc(C)ncc1C(=O)Nc1nnc(O[C@H]2CCC[C@H](O)C2)s1 [Example 271, 2′-bromo-N-(5-(((1S,3S)-3-hydroxycyclohexyl)oxy)-1,3,4-thiadiazol-2-yl)-5′-methoxy-6-methyl-[4,4′-bipyridine]-3-carboxamide]
- IC50: ≤ 200 nM

Structure (SMILES): COc1nnc(NC(=O)c2cnc(C)cc2-c2cc(Cl)c(S(C)(=O)=O)cc2OC)s1 [Example 272, 4-(5-chloro-2-methoxy-4-(methylsulfonyl)phenyl)-N-(5-methoxy-1,3,4-thiadiazol-2-yl)-6-methylnicotinamide]
- IC50: ≤ 200 nM

Structure (SMILES): COc1nnc(NC(=O)c2cc(OC(C)C)ncc2-c2cc(Cl)ncc2OC)s1 [Example 273, 2′-chloro-6-isopropoxy-5′-methoxy-N-(5-methoxy-1,3,4-thiadiazol-2-yl)-[3,4′-bipyridine]-4-carboxamide]
- IC50: 200 to 500 nM

Structure (SMILES): COc1cnc(Cl)cc1-c1cc(C)ncc1C(=O)Nc1nnc(O[C@@H]2CCCN([C@H]3CCOC3)C2)s1 [Example 275, 2′-chloro-5′-methoxy-6-methyl-N-(5-(((R)-1-((S)-tetrahydrofuran-3-yl)piperidin-3-yl)oxy)-1,3,4-thiadiazol-2-yl)-[4,4′-bipyridine]-3-carboxamide]
- IC50: ≤ 200 nM

Structure (SMILES): CCOc1cc(C(=O)Nc2nnc(OC)s2)c(-c2cc(Cl)ncc2OC)cn1 [Example 276, 2′-chloro-6-ethoxy-5′-methoxy-N-(5-methoxy-1,3,4-thiadiazol-2-yl)-[3,4′-bipyridine]-4-carboxamide]
- IC50: ≤ 200 nM

Structure (SMILES): COc1cnc(Cl)cc1-c1cc(C)ncc1C(=O)Nc1nnc(OC2CCN(CC(F)(F)F)CC2)s1 [Example 278, 2′-chloro-5′-methoxy-6-methyl-N-(5-((1-(2,2,2-trifluoroethyl)piperidin-4-yl)oxy)-1,3,4-thiadiazol-2-yl)-[4,4′-bipyridine]-3-carboxamide]
- IC50: 200 to 500 nM

Structure (SMILES): COc1nnc(NC(=O)c2ccc(C)cc2-c2cc(Cl)ncc2OC)s1 [Example 279, 2-(2-chloro-5-methoxypyridin-4-yl)-N-(5-methoxy-1,3,4-thiadiazol-2-yl)-4-methylbenzamide]
- IC50: ≤ 200 nM

Structure (SMILES): COc1cnc(Cl)cc1-c1cc(C)ncc1C(=O)Nc1nnc(OC2CCN(C3COC3)CC2)s1 [Example 280, 2′-chloro-5′-methoxy-6-methyl-N-(5-((1-(oxetan-3-yl)piperidin-4-yl)oxy)-1,3,4-thiadiazol-2-yl)-[4,4′-bipyridine]-3-carboxamide]
- IC50: ≤ 200 nM

Structure (SMILES): COc1nnc(NC(=O)c2cnc(C(F)F)cc2-c2cc(Cl)ncc2OC)s1 [Example 281, 2′-chloro-6-(difluoromethyl)-5′-methoxy-N-(5-methoxy-1,3,4-thiadiazol-2-yl)-[4,4′-bipyridine]-3-carboxamide]
- IC50: ≤ 200 nM

Structure (SMILES): COc1nnc(NC(=O)c2cc(F)c(C)cc2-c2cc(Cl)ncc2OC)s1 [Example 282, 2-(2-chloro-5-methoxypyridin-4-yl)-5-fluoro-N-(5-methoxy-1,3,4-thiadiazol-2-yl)-4-methyl benzamide]
- IC50: ≤ 200 nM

Structure (SMILES): COc1cnc(Br)cc1-c1cc(C)ncc1C(=O)Nc1nnc(O[C@@H]2CCC[C@@H](O)C2)s1 [Example 284, 2′-bromo-N-(5-(((1R,3R)-3-hydroxycyclohexyl)oxy)-1,3,4-thiadiazol-2-yl)-5′-methoxy-6-methyl-[4,4′-bipyridine]-3-carboxamide]
- IC50: ≤ 200 nM

Structure (SMILES): COc1nnc(NC(=O)c2cc(-c3cc(Cl)ncc3OC)ncc2C)s1 [Example 285, 2′-chloro-5′-methoxy-N-(5-methoxy-1,3,4-thiadiazol-2-yl)-5-methyl-[2,4′-bipyridine]-4-carboxamide]
- IC50: 1000 to 10000 nM

Structure (SMILES): COc1nnc(NC(=O)c2ccc(N)cc2-c2cc(Cl)ncc2OC)s1 [Example 286, 4-amino-2-(2-chloro-5-methoxypyridin-4-yl)-N-(5-methoxy-1,3,4-thiadiazol-2-yl)benzamide]
- IC50: ≤ 200 nM

Structure (SMILES): COc1cnc(Cl)cc1-c1cc(C)ncc1C(=O)Nc1nnc(OC2(C3CCOC3)CC2)s1 (stereo not drawn) [Example 288, 2′-chloro-5′-methoxy-6-methyl-N-(5-(1-(tetrahydrofuran-3-yl)cyclopropoxy)-1,3,4-thiadiazol-2-yl)-[4,4′-bipyridine]-3-carboxamide]
- IC50: ≤ 200 nM

Structure (SMILES): COc1nnc(NC(=O)c2ccnc(C#N)c2-c2cc(Cl)ncc2OC)s1 [Example 289, 2′-chloro-2-cyano-5′-methoxy-N-(5-methoxy-1,3,4-thiadiazol-2-yl)-[3,4′-bipyridine]-4-carboxamide]
- IC50: 1000 to 10000 nM

Structure (SMILES): COc1nnc(NC(=O)c2cc(C#N)ncc2-c2cc(Cl)ncc2OC)s1 [Example 290, 2′-chloro-6-cyano-5′-methoxy-N-(5-methoxy-1,3,4-thiadiazol-2-yl)-[3,4′-bipyridine]-4-carboxamide]
- IC50: 200 to 500 nM

Structure (SMILES): COc1nnc(NC(=O)c2ccccc2-c2cc(Cl)ncc2OC)s1 [Example 291, 2-(2-chloro-5-methoxypyridin-4-yl)-N-(5-methoxy-1,3,4-thiadiazol-2-yl)benzamide]
- IC50: ≤ 200 nM

Structure (SMILES): COc1nnc(NC(=O)c2nnc(C)cc2-c2cc(Cl)ncc2OC)s1 [Example 294, 4-(2-chloro-5-methoxypyridin-4-yl)-N-(5-methoxy-1,3,4-thiadiazol-2-yl)-6-methylpyridazine-3-carboxamide]
- IC50: 200 to 500 nM

Structure (SMILES): COc1cnc(Cl)cc1-c1cc(C)ncc1C(=O)Nc1nnc(OC2CCC23CCOC3)s1 (stereo not drawn) [Example 296, N-(5-((6-oxaspiro[3.4]octan-1-yl)oxy)-1,3,4-thiadiazol-2-yl)-2′-chloro-5′-methoxy-6-methyl-[4,4′-bipyridine]-3-carboxamide]
- IC50: ≤ 200 nM

Structure (SMILES): COc1nnc(NC(=O)c2ccc([N+](=O)[O-])cc2-c2cc(Cl)ncc2OC)s1 [Example 300, 2-(2-chloro-5-methoxypyridin-4-yl)-N-(5-methoxy-1,3,4-thiadiazol-2-yl)-4-nitrobenzamide]
- IC50: ≤ 200 nM

Structure (SMILES): COc1nnc(NC(=O)c2cc(OC)c(C)cc2-c2cc(Cl)ncc2OC)s1 [Example 301, 2-(2-chloro-5-methoxypyridin-4-yl)-5-methoxy-N-(5-methoxy-1,3,4-thiadiazol-2-yl)-4-methylbenzamide]
- IC50: ≤ 200 nM

Structure (SMILES): COc1nnc(NC(=O)c2cc(CC#N)ncc2-c2cc(Cl)ncc2OC)s1 [Example 302, 2′-chloro-6-(cyanomethyl)-5′-methoxy-N-(5-methoxy-1,3,4-thiadiazol-2-yl)-[3,4′-bipyridine]-4-carboxamide]
- IC50: ≤ 200 nM

Structure (SMILES): COc1nnc(NC(=O)c2cnc(C)cc2-c2ccc(P(C)(C)=O)cc2OC)s1 [Example 303, 4-(4-(dimethylphosphoryl)-2-methoxyphenyl)-N-(5-methoxy-1,3,4-thiadiazol-2-yl)-6-methylnicotinamide]
- IC50: 1000 to 10000 nM

Structure (SMILES): COc1cnc(Cl)cc1-c1cc(C)ncc1C(=O)Nc1nnc(O[C@H]2CN3CCC2CC3)s1 [Example 306, (R)-2′-chloro-5′-methoxy-6-methyl-N-(5-(quinuclidin-3-yloxy)-1,3,4-thiadiazol-2-yl)-[4,4′-bipyridine]-3-carboxamide]
- IC50: 1000 to 10000 nM

Structure (SMILES): COc1cnc(Cl)cc1-c1cc(C)ncc1C(=O)Nc1nnc(O[C@H]2CCCN([C@@H]3CCOC3)C2)s1 [Example 309, 2′-chloro-5′-methoxy-6-methyl-N-(5-(((S)-1-((R)-tetrahydrofuran-3-yl)piperidin-3-yl)oxy)-1,3,4-thiadiazol-2-yl)-[4,4′-bipyridine]-3-carboxamide]
- IC50: ≤ 200 nM

Structure (SMILES): COc1nnc(NC(=O)c2cc(N(C)C)ncc2-c2cc(Cl)ncc2OC)s1 [Example 311, 2′-chloro-6-(dimethylamino)-5′-methoxy-N-(5-methoxy-1,3,4-thiadiazol-2-yl)-[3,4′-bipyridine]-4-carboxamide]
- IC50: 200 to 500 nM

Structure (SMILES): COc1cnc(C)c(F)c1-c1cc(C)ncc1C(=O)Nc1nnc(O[C@H]2CC[C@H](CO)CC2)s1 [Example 314, 3′-fluoro-N-(5-(((1r,4r)-4-(hydroxymethyl)cyclohexyl)oxy)-1,3,4-thiadiazol-2-yl)-5′-methoxy-2′,6-dimethyl-[4,4′-bipyridine]-3-carboxamide]
- IC50: ≤ 200 nM

Reference: patent US20240287080A1 (IDEAYA Biosciences Inc., priority 2021, published 2024)
